Article PMC12371494, “Discovery of YTHDF2 Ligands by Fragment-Based Design” (ACS Bio & Med Chem Au, 2025)

Key:
[1] = biological target: T1, GST-YTHDF2 (Homo sapiens, UniProt Q9Y5A9); test: HTRF-based binding assay, competition with m6A-oligoRNA, DF2; details: for Residual signal at 1 mM concentration: 1 mM compound, relative to control, average of two technical replicates, * = interference with the assay; for IC50: dose-response, competitor m6A-oligoRNA, read-out: DF2 IC50 (HTRF assay); for % at 100 µM: 100 µM compound
T1 construct: made in house
T1 sequence (Q9Y5A9 1-579): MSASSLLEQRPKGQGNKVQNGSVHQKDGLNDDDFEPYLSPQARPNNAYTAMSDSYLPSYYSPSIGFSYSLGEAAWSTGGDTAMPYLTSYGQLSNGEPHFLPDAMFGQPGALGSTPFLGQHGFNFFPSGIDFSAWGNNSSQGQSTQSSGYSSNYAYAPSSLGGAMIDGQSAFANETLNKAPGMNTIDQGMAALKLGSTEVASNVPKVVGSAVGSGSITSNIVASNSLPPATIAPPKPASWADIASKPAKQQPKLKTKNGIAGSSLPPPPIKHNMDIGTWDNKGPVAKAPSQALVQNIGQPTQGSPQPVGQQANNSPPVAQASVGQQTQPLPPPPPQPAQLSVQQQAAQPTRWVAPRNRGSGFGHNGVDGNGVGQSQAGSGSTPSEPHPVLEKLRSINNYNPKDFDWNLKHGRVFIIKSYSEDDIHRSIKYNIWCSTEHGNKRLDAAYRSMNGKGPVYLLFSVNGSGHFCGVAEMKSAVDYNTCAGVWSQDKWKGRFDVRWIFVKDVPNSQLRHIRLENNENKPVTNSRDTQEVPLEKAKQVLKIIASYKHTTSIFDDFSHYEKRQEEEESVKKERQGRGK

[2] = biological target: T2, YTHDC2 (Homo sapiens, UniProt Q9H6S0); test: DNA-fluorescence polarization (FP) competition assay, DC2; format: binding; details: Cheng-Prusoff from FP IC50, probe Kd 7 nM; two biological replicates
T2 construct: YTH domain of YTHDC2 (residues 1285–1424, cloned into the pGEX-6P-1 vector); made in house; host or cells: Rosetta (DE3) cells (E. coli)
T2 sequence (Q9H6S0 1285-1424): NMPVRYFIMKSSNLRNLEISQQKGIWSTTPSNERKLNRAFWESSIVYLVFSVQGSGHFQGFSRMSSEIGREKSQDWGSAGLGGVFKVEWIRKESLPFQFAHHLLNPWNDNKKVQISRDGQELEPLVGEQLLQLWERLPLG
Experimental: The binding affinity for DC1 could not be evaluated by HTRF because of interference of the compounds with the assay, which has a smaller assay window when performed with DC1 compared to the DF proteins. Thus, the FP assay was used to evaluate binding to DC1 and DC2.
The N-terminally GST-tagged YTH domain of YTHDC2 (residues 1285–1424, cloned into the pGEX-6P-1 vector) was overexpressed in Rosetta (DE3) cells grown overnight at 20 °C following induction with 0.4 mM isopropyl-β-D-thiogalactopyranoside (IPTG) at an OD600 of 0.8. The cells were harvested and resuspended in a lysis buffer containing 100 mM Tris–HCl (pH 8.0) and 500 mM NaCl. After cell lysis, the lysate was clarified by centrifugation at 48,000g for 1 h, and the soluble proteins were loaded onto a column packed with Glutathione Sepharose 4B (GE Healthcare), then eluted with 20 mM reduced glutathione in lysis buffer. Finally, a size-exclusion chromatography step (HiLoad 16/600 Superdex 200 pg column, GE Healthcare) was performed to further purify the protein in 20 mM Tris–HCl (pH 7.4) and 150 mM NaCl.
For fluorescence polarization (FP) experiments, a 5′-fluorescein-labeled m^6A-DNA probe (5′-FAM-[…](m6A)-CTAAGCT-3′) was synthesized by Microsynth AG.
The final concentration of the fluorescein-labeled DNA was kept constant at 3 nM. For YTHDC2 measurements, the protein concentration was set to 25 nM, while for YTHDF2 measurements, it was set to 10 nM, and for YTHDC1, it was set at 15 nM. The compound concentration was serially diluted to obtain the dose–response curve. The competition experiments were conducted in a final volume of 20 μL in a buffer containing 20 mM Tris–HCl (pH 7.4), 150 mM NaCl, and 0.01% bovine serum albumin (BSA), using a 384-well black flat-bottomed microplate (Corning 3575).
After incubating the mixture for 1 h, the anisotropy values were measured using a Tecan SPARK plate reader with 485/20 nm excitation and 535/25 nm emission polarization filters, suitable for fluorescein, at 25 °C. To obtain the equilibrium dissociation constant (K d), the IC50 values were first derived by fitting a dose–response curve to the data using nonlinear regression analysis in GraphPad Prism. These IC50 values were then converted to K d by using the Cheng–Prusoff equation: Kd=IC50/1+[L]/Kdprobe
IC50 is the observed value from FP assay, [L] is the probe concentration used, and K d ^probe is the binding affinity of probe for the target.

In the case of `CCCc1nnc(NC(C)=O)s1` [Compound S26], the “Residual signal at 1 mM concentration” value ([1]; HTRF) is reported as greater than 90%.

With `Cc1nc(O)c2sccc2n1` [Compound S27] the “Residual signal at 1 mM concentration” value ([1]; HTRF) was greater than 90%.

For `CCOC(=O)c1noc(C)n1` [Compound S28], the “Residual signal at 1 mM concentration” value ([1]; HTRF) was greater than 90%.

`COc1cnc(Br)cc1O` [Compound S29] was tested, and the “Residual signal at 1 mM concentration” value ([1]; HTRF) was greater than 90%.

With `COc1cccc(-c2ccc3c(N)n[nH]c3n2)c1` [Compound S30] the “Residual signal at 1 mM concentration” value ([1]; HTRF) was greater than 90%.

With `FC(F)(F)c1cc(-c2ccc3ccccc3c2)n[nH]1` [Compound S31] the “Residual signal at 1 mM concentration” value ([1]; HTRF) was greater than 90%.

In the case of `Cc1nnc(N)n(N)c1=O` [Compound S32], the “Residual signal at 1 mM concentration” value ([1]; HTRF) is reported as greater than 90%.

`O=c1cc(O)cc(C(F)(F)F)[nH]1` [Compound S33] was tested, and the “Residual signal at 1 mM concentration” value ([1]; HTRF) was greater than 90%.

With `CCc1cc(NC(=O)c2ccc(C)nc2)[nH]n1` [Compound S34] the “Residual signal at 1 mM concentration” value ([1]; HTRF) was greater than 90%.

In the case of `Cc1n[nH]c(N)c1C#N` [Compound S36], the “Residual signal at 1 mM concentration” value ([1]; HTRF) is reported as greater than 90%.

For `N#Cc1c(C2CC2)n[nH]c1N` [Compound S37], the “Residual signal at 1 mM concentration” value ([1]; HTRF) was greater than 90%.

For `NC(=O)c1cccnc1NCC1CC1` [Compound S39], the “Residual signal at 1 mM concentration” value ([1]; HTRF) was greater than 90%.

For `NCCC1C(=O)NC(=S)NC1=O` [Compound S42], the IC50 [1] was 330 µM.

With `CC1(C)C(=O)NC(=S)NC1=O` [Compound S43] the “Residual signal at 1 mM concentration” value ([1]; HTRF) was 11%.

In the case of `O=C1CC(=O)NC(=S)N1` [Compound S44], the “Residual signal at 1 mM concentration” value ([1]; HTRF) is reported as 79%.

`CN1C(=O)CC(=O)NC1=S` [Compound S45] was tested, and the “Residual signal at 1 mM concentration” value ([1]; HTRF) was 75%.

`Cn1cccc1C=C1C(=O)NC(=S)NC1=O` [Compound S46] was tested, and the “Residual signal at 1 mM concentration” value ([1]; HTRF) was 13%.

For `CNC=C1C(=O)NC(=S)NC1=O` [Compound S47], the IC50 [1] was 91 µM.

`CN(NC=C1C(=O)NC(=S)NC1=O)c1ccccc1` [Compound S49] was tested, and the “Residual signal at 1 mM concentration” value ([1]; HTRF) was 54%.

For `Cc1cc(O)nc(NC=C2C(=O)NC(=S)NC2=O)n1` [Compound S50], the “Residual signal at 1 mM concentration” value ([1]; HTRF) was 9% and the IC50 [1] was 57 µM.

`CN(C)c1ccc(C=C2C(=O)NC(=S)NC2=O)o1` [Compound S51] was tested, and the “Residual signal at 1 mM concentration” value ([1]; HTRF) was 35%.

In the case of `CCOc1ccc(C=C2C(=O)NC(=S)NC2=O)cc1Cl` [Compound S52], the “Residual signal at 1 mM concentration” value ([1]; HTRF) is reported as 12%, the “LE (ligand efficiency, DF2)” value ([1]; LE = -RT ln IC50/HAC from HTRF IC50) is reported as 0.29 kcal/(mol HAC) and the IC50 [1] is reported as 55 µM.

`Cc1n[nH]c(=S)[nH]c1=O` [Compound S53] was tested, and the “Residual signal at 1 mM concentration” value ([1]; HTRF) was 38%.

`O=C(CCc1n[nH]c(=S)[nH]c1=O)Nc1ccccc1` [Compound S55] showed an IC50 [1] of 190 µM.

`CCNc1cc(=O)[nH]c(=O)[nH]1` [Compound S56] was tested, and the “Residual signal at 1 mM concentration” value ([1]; HTRF) was 51%.

`CNc1ncnc2[nH]nc(C)c12` [Compound S57] was tested, and the “Residual signal at 1 mM concentration” value ([1]; HTRF) was 88%.

`O=c1[nH]c(=O)c2cn[nH]c2[nH]1` [Compound S58] was tested, and the “Residual signal at 1 mM concentration” value ([1]; HTRF) was 47%.

For `O=c1[nH]c(=S)[nH]c2sc3c(c12)CCC3` [Compound S59], the “Residual signal at 1 mM concentration” value ([1]; HTRF) was 35% and the IC50 [1] was 53 µM.

With `CC1CCc2c(sc3[nH]c(=S)[nH]c(=O)c23)C1` (stereo not shown) [Compound S60] the “Residual signal at 1 mM concentration” value ([1]; HTRF) was 24% and the IC50 [1] was 80 µM.

With `O=c1[nH]c(=O)c2ccsc2[nH]1` [Compound S61] the IC50 [1] was 290 µM.

`O=c1[nH]c(=S)[nH]c2cnccc12` [Compound S62] showed an IC50 [1] of 170 µM.

With `O=c1[nH]c(=S)[nH]c2[nH]ccc12` [Compound S63] the “% at 100 µM” value ([1]; HTRF) was 49% and the “Residual signal at 1 mM concentration” value ([1]; HTRF) was 28%.

With `O=c1[nH]c(=S)[nH]c2ccsc12` [Compound S64] the “% at 100 µM” value ([1]; HTRF) was 36%.

With `CCc1cc2c(=O)[nH]c(SC)nc2s1` [Compound S65] the “% at 100 µM” value ([1]; HTRF) was 68%.

`Cc1cc2c(=O)n(C3CC3)c(=S)[nH]c2s1` [Compound S66] was tested, and the “% at 100 µM” value ([1]; HTRF) was 25% and the “Residual signal at 1 mM concentration” value ([1]; HTRF) was 23%.

`Nn1c(=S)[nH]c2sccc2c1=O` [Compound S67] was tested, and the “% at 100 µM” value ([1]; HTRF) was 40% and the “Residual signal at 1 mM concentration” value ([1]; HTRF) was 23%.

`Nn1c(=S)[nH]c2scc(-c3ccccc3)c2c1=O` [Compound S68] was tested, and the “% at 100 µM” value ([1]; HTRF) was 32% and the “Residual signal at 1 mM concentration” value ([1]; HTRF) was 36%.

`CCN1CCc2c(sc3[nH]c(=S)n(N)c(=O)c23)C1` [Compound S69] was tested, and the IC50 [1] was 23 µM.

`O=c1[nH]c(=S)[nH]c2scc(-c3cccs3)c12` [Compound S70] was tested, and the “% at 100 µM” value ([1]; HTRF) was 45% and the “Residual signal at 1 mM concentration” value ([1]; HTRF) was 49%.

In the case of `COc1cccc2c1OCc1sc3[nH]c(=S)[nH]c(=O)c3c1-2` [Compound S73], the “% at 100 µM” value ([1]; HTRF) is reported as 22% and the “Residual signal at 1 mM concentration” value ([1]; HTRF) is reported as 64%.

In the case of `O=c1[nH]c(=S)[nH]c2scc(-c3ccccc3)c12` [Compound S74], the IC50 [1] is reported as 94 µM and the Kd [2] is reported as greater than 1000 µM.

In the case of `CCOC(=O)c1ccc(Cc2cc3c(=O)[nH]c(=S)[nH]c3s2)cc1` [Compound S86], the “% at 125 μM (printed in IC50 column, IC50 could not be determined)” value ([1]; HTRF, 125 μM compound) is reported as 63% and the Kd [2] is reported as 210 µM.
